The source of these data is US11649222B2, “Compounds” (UNIVERSITETET I OSLO, priority 2016, dated 2023).

“And” between values parts separate entries of the source, which are not always exact repeats. Equal entries are not always repeated. “Also recorded” adds a separate entry of the source. Where two headings read alike, the source gives them in different places.

The test system of one data set is K. pneumoniae K66-45. The format is cell-based. The method, then:
After plating and grown overnight at 37° C., only single colonies, ignoring any touching the edges of the plate, were counted.
10^9 CFU K66-45 (Mueller-Hinton broth, no selection) was plated and grown overnight, 37° C. Only single colonies, ignoring any touching the edges of the plate, were counted.

The next data set has as its target rH glyoxylase II (Homo sapiens, UniProt Q16775). The data set can be described thus: Interaction with zinc-containing human enzyme. Type of data set: biochemical. The conditions noted are these: 62.5-500 μM, 30 min, 25° C.
The subject of data set [1] is strains producing Klebsiella pneumoniae carbapenemases (KPC). The data set can be described thus: Adjuvant activity with a carbapenem against KPC-producing strains. Type of data set: cell-based.
Data set [2] concerns P. aeruginosa 50808021 (No MBL). The experiment in a line: Microbroth dilution MIC of meropenem with/without inhibitor. The format is cell-based. The following applies: inhibitor 25 mg/L. On the procedure:
(§1) • Plate bacterial strain(s) on appropriate media: • Gram-negative bacteria with ESBLs or carbapenemases: green agar plates with 100 mg/L ampicillin • Gram-negative bacteria without β-lactamases: green agar plates • Gram-positive bacteria (Staphylococci and Enterococci): blood agar plates • Incubate o.n. at 37° C. […] (Should be used within 15 min of preparation). • Dilute the 0.5 McFarland suspension 1:100 into MH broth. […] Plate 10 μl of the dilution on MH agar plates (×2). Incubate o.n. at 37° C., count the colonies and calculate the final CFU/ml inoculum in the plate by multiplying the average number of colonies with 10000 and divide by 2. The final inoculum should be between 3-7×10^5 CFU/ml. • Add 50 μl of the prepared bacterial suspension to each well in the microtiter plate except negative growth control. Preparation of Compounds/Antibiotics • Calculate the desired concentration-range and volume of the compounds/antibiotics in the assay. […] Dilute the stock solution in MH broth. Make subsequent 2-fold dilutions in MH broth of the desired concentrations if a concentration range is to be tested (remember the extra dilution factor in the assay plate). Always include extra volume for pipetting. Take into consideration stock solutions that are made in buffers that have an effect on bacterial growth (e.g. DMSO).

The test system of data set [3] is K. pneumoniae 50732159 (No MBL). The data set is described as above. The format is cell-based. The following applies: inhibitor 25 mg/L. On the procedure:
as §1

The subject of data set [4] is P. aeruginosa 50692172 (NDM-1). The data set is described as above. Type of data set: cell-based. The conditions noted are these: inhibitor 25 mg/L. On the procedure: as §1
Data set [5] has as its system K. pneumoniae K66-45 and P. aeruginosa K34-7. The data set can be described thus: Microbroth dilution MIC, carbapenem + inhibitor, two resistant clinical isolates. The conditions noted are these: Example 26 25 mg/L, three batches; meropenem and doripenem. The format is cell-based. The method, then:
(§2) • Plate bacterial strain(s) on appropriate media: • Gram-negative bacteria with ESBLs or carbapenemases: green agar plates with 100 mg/L ampicillin • Gram-negative bacteria without β-lactamases: green agar plates • Gram-positive bacteria (Staphylococci and Enterococci): blood agar plates • Incubate o.n. at 37° C. Day 2: Prepare the Bacterial Inoculum: • Prepare a 0.5 McFarland suspension of bacteria in 0.85% NaCl. (Should be used within 15 min of preparation). • Dilute the 0.5 McFarland suspension 1:100 into MH broth. Check the inoculum by diluting the prepared bacterial suspension 1:100 (10 μl bacterial suspension+990 μl 0.85% NaCl). Plate 10 μl of the dilution on MH agar plates (×2). Incubate o.n. at 37° C., count the colonies and calculate the final CFU/ml inoculum in the plate by multiplying the average number of colonies with 10000 and divide by 2. The final inoculum should be between 3-7×10^5 CFU/ml. • Add 50 μl of the prepared bacterial suspension to each well in the microtiter plate except negative growth control. Preparation of Compounds/Antibiotics • Calculate the desired concentration-range and volume of the compounds/antibiotics in the assay. […] Dilute the stock solution in MH broth. Make subsequent 2-fold dilutions in MH broth of the desired concentrations if a concentration range is to be tested (remember the extra dilution factor in the assay plate). Always include extra volume for pipetting. Take into consideration stock solutions that are made in buffers that have an effect on bacterial growth (e.g. DMSO).
For orientation: Broth dilution looks for growth in wells or tubes with falling amounts of substance.

Data set [6] deals with meropenem-resistant K. pneumonia and E. coli. The data set can be described thus: Checkerboard MIC, all MDR isolates. Type of data set: cell-based. The following applies: for some of the strains. On the procedure:
A checkerboard MIC assay was using the broth dilution method according to CLSI guidelines. […] Dilutions to 4 mg/ml was performed by adding+4.75 ml sterile saline to 0.25 ml of the stock solution, and dilutions to 512 μg/ml was performed by adding 10.9 ml MH-broth to the 4 mg/ml solution. Inoculums of bacterial strains as described in Table 4 were prepared by suspending fresh overnight colonies from 5% horse blood agar were to a turbidity of 0.5 McFarland and further diluted to 1×10^6 CFU/ml in MH-broth. Aliquots of 50 μl of MH-broth were added to each well of polystyrene microtiter plates. […] The plates were incubated at 35° C., 16-20 hours.

In data set [7] the test system is K. pneumoniae K66-45 (NDM-1). The experiment in a line: Microbroth dilution MIC of carbapenem with/without inhibitor. The format is cell-based. The method, boiled down: (§3)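 Broth microdilution in MH broth with 2-fold compound/antibiotic dilution series. Inoculum from a 0.5 McFarland suspension diluted 1:100, final 3-7×10^5 CFU/ml confirmed by colony count. Strains pre-grown overnight at 37° C, ampicillin 100 mg/L plates for ESBL/carbapenemase producers.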

Data set [8] concerns P. aeruginosa K34-7 (VIM-2). The description is as above. The format is cell-based. The conditions noted are these: Example 26 25 mg/L. The procedure, abridged: as §3
In a further data set the target is VIM-2 (Escherichia coli, UniProt Q5U7L7). Type of data set: biochemical. The method, then: The eluent used was Chelex-treated HEPES 50 mM buffer, pH 7.5. […] In all experiments, 16 aliquots of 250 μL were taken from the PD-10 column runsout and enzyme activity was analysed. Enzyme activity was measured by adding Nitrocefin as a reporter substrate (final concentration of 50 μM).
To investigate if more extreme time-dependent and concentration-dependent conditions could restore enzyme activity, aliquots having final concentrations of 30 nM column-treated enzyme and 1000 μM Zn^2+ on ice and at room temperature over prolonged time.

For a further data set, the system named is E. coli 50639799 (VIM-1). The experiment in a line: Microbroth dilution MIC of meropenem with/without inhibitor. Type of data set: cell-based. On the procedure: as §2
(§4) This experimental design was used for the results in Tables 2-6 below.

The subject of a further data set is E. coli K71-77 (NDM-1). The data set is described as above. Type of data set: cell-based. On the procedure: as §2, §4
The subject of data set [9] is K. pneumoniae A3-81 (VIM-1). The description is as above. Type of data set: cell-based. On the procedure:
as §2, §4

As a reminder, the MIC is the smallest concentration in the dilution series that meets the test's criterion for growth inhibition. In the case of `CN(C[C@H](O)[C@@H](O)[C@H](O)[C@H](O)CO)C(=O)c1ccc(CN(Cc2ccccn2)Cc2ccccn2)nc1` [Example 26, 6-((bis(pyridin-2-ylmethyl)amino)methyl)-N-methyl-N-((2S,3R,4R,5R)-2,3,4,5,6-pentahydroxyhexyl)nicotinamide], the “Resistance/mutant frequency (number of colonies)” value in the data set with K. pneumoniae K66-45 (Example 26 15 mg/L, 8 mg/L MEM) was “n.c”; in the data set on K. pneumoniae K66-45 (Example 26 25 mg/L, 4 mg/L MEM) it was “n.c”; in the data set with K. pneumoniae K66-45 (Example 26 25 mg/L, 8 mg/L MEM), “n.c”; in the data set on K. pneumoniae K66-45 (Example 26 50 mg/L, 4 mg/L MEM), “n.c”; in the data set with K. pneumoniae K66-45 (Example 26 50 mg/L, 8 mg/L MEM), “n.c”. On rH glyoxylase II, the “interaction with rH glyoxylase II” value was “does not interact with rH glyoxylase II”. Further, in data set [1], the “adjuvant activity with a carbapenem against KPC-producing strains” value was “does not show activity”. Also, the “Meropenem activity in presence of inhibitor” value is greater than 64 mg/L in data set [2], 32 mg/L in data set [3] and 4 mg/L in data set [4]. Besides, the “factor of potentiation of carbapenems” value in [5] is on record as 32-256 times. Besides, the “amplification of the effect of meropenem” value in [6] is recorded as greater than 1000 times. For the same compound, the “MIC of doripenem (DOR) + Example 26” value in data set [7] (Example 26 25 mg/L, K. pneumoniae K66-45 NDM-1) was 0.25 mg/L and 0.125 mg/L (2×); in [8] it was 1 µg/mL. Further, the MIC in data set [7] (Klebsiella pneumoniae, inhibitor 31.25 μM, 50 μM and 100 μM, K. pneumoniae K66-45, read-out: MIC of MEM in the presence of inhibitor) came to 0.125 µg/mL. In addition, the MIC of meropenem in [7] (inhibitor 31.25 μM, K. pneumoniae K66-45 NDM-1) came to 0.125; in [7] (inhibitor 50 μM, K. pneumoniae K66-45 NDM-1), 0.125. Further, at VIM-2 (15 nM impaired enzyme spiked with ZnSO4 0-100 μM), the enzyme activity restored is reported as 40%. Also, the residual enzyme activity on VIM-2 (50 nM VIM-2 + 140 mg/L Example 26, 1 hour on ice, PD-10 eluate fraction 5) was found to be 33%. Further, the “irreversibility of VIM-2 inhibition” value at VIM-2 (purified VIM-2, PD-10 column) is “irreversibly inhibits VIM-2; also recorded: irreversibly inhibited”.

`C[C@@H](O)[C@H]1C(=O)N2C(C(=O)O)=C(S[C@@H]3CN[C@H](C(=O)N(C)C)C3)[C@H](C)[C@H]12` [meropenem, reference compound]: the “Meropenem activity without inhibitor” value fell in the range of 8 to 32 mg/L in the data set on E. coli 50639799 (VIM-1), 1 to 8 mg/L in the data set with E. coli K71-77 (NDM-1) and 64 to 256 mg/L in data set [9].
